{"source": "patent US20190343908A1", "about": "“Therapeutic Combination for the Treatment of Cancer” (Nerium Biotechnology Inc., priority 2011, published 2019)", "key": {"[1]": {"test_system": "CALU-1 (non-small cell lung carcinoma)", "assay": "Sulforhodamine B viability assay, CALU-1", "format": "cell-based, human", "excerpt": "(§1) Three different viability assays were chosen to complement each other and yielded results dependent on concentration and cell line: the Methyl Tetrazolium dye assay, the Sulforhodamine B fluorescent dye assay, and the Crystal Violet dye assay.\n(§2) The Sulforhodamine B and Crystal Violet assays provide information about protein and were used to complement the Methyl-Tetrazolium dye assay. […] It is used for the quantification of cellular proteins of cultured cells. The assay using Crystal Violet, a dye that binds electrostatically to proteins and stains DNA, provides a reliable, simple assay for measuring viability of cells.\n(§3) The Methyl Tetrazolium, Sulforhodamine B, and Crystal Violet assays were used to assess cell viabilities. The incubation times were 24 hours, 48 hours, and 72 hours. The Nerium oleander extract Anvirzel™ (a hot water extract of oleander obtained from Salud Integral, Honduras) was tested in concentrations ranging from 0.01 ng/mL to 10 ng/mL.\n(§4) Cells were detached by trypsinization (Trypsin-0.25% EDTA, Invitrogen, 25200-072) during the logarithmic phase of culture growth and plated in 96-well plates (18.000 cells/well) (Corning, Costar 359) in a final volume of 200 μl of medium per well. […] The absorbance was measured after 24 hours, 48 hours, and 72 hours of incubation.\nFor the Sulforhodamine B assay, 96-well plates were fixed by 10% trichloroacetic acid (Fluka, 91228) and were incubated at 4° C. for 1 hour. Afterwards, plates were rinsed with water and cells were stained with 0.4% Sulforhodamine B (Sigma, 341738), dissolved in 1% acetic acid (Carlo Ebra, 401422) for 15 minutes at room temperature (RT). The unbound stain was washed twice with 1% acetic acid. Finally, 10 mM Tris Buffer pH 10.5 (Sigma, T6791) was added to dissolve the dye.\n(§5) The optical density of each plate was measured on a μQuant spectrophotometer and the data were analyzed with Gen5 software (μQuant Biomolecular Spectrophotometer MQX200 and Gen5™ Microplate Data Collection & Analysis software, BioTek® Instruments. Inc, April 2008). Absorbance was measured at 570 nm for all assays and a second wavelength was measured in order to subtract noise. For the Methyl-Tetrazolium assay this second wavelength was 630 nm and for the Sulforhodamine B and Crystal Violet assays it was 690 nm."}, "[2]": {"test_system": "PC3 (human prostate cancer)", "assay": "Crystal Violet viability assay, PC3", "format": "cell-based", "excerpt": "as §1, §2, §3, §4\nFor the Crystal Violet assay, the medium was removed from the 96-well plates, the plates rinsed with PBS (Sigma, P3813) and then the cells were […] by the addition of 10% formalin (MERCK, 1.04003.2500) for 20 minutes at RT. Formalin was removed and 0.25% aqueous crystal violet (Sigma, HT901), dissolved in water, was added for 10 minutes at RT. Unbound Crystal Violet was rinsed by washing with water and finally 33% acetic acid was added to dissolve the dye.\nas §5"}}}
{"molecule": "N.N.[Cl][Pt][Cl]", "note": "[cisplatin]", "values": [{"measurement": "Average SRB 24 h", "setting": "[1]; CALU-1 Run 1, 0.1 μg/ml CDDP", "result": 1.457}, {"measurement": "Average SRB 48 h", "setting": "[1]; CALU-1 Run 1, 0.1 μg/ml CDDP", "result": 1.939}, {"measurement": "Average SRB 72 h", "setting": "[1]; CALU-1 Run 1, 0.1 μg/ml CDDP", "result": 1.598}, {"measurement": "Average SRB 24 h", "setting": "[1]; CALU-1 Run 1, 1 μg/ml CDDP", "result": 1.438}, {"measurement": "Average SRB 48 h", "setting": "[1]; CALU-1 Run 1, 1 μg/ml CDDP", "result": 1.991}, {"measurement": "Average SRB 72 h", "setting": "[1]; CALU-1 Run 1, 1 μg/ml CDDP", "result": 1.5}, {"measurement": "Average SRB 24 h", "setting": "[1]; CALU-1 Run 1, 10 μg/ml CDDP", "result": 1.401}, {"measurement": "Average SRB 48 h", "setting": "[1]; CALU-1 Run 1, 10 μg/ml CDDP", "result": 1.563}, {"measurement": "Average SRB 72 h", "setting": "[1]; CALU-1 Run 1, 10 μg/ml CDDP", "result": 1.108}, {"measurement": "Average SRB 24 h", "setting": "[1]; CALU-1 Run 1, 100 μg/ml CDDP", "result": 1.348}, {"measurement": "Average SRB 48 h", "setting": "[1]; CALU-1 Run 1, 100 μg/ml CDDP", "result": 1.521}, {"measurement": "Average SRB 72 h", "setting": "[1]; CALU-1 Run 1, 100 μg/ml CDDP", "result": 1.299}, {"measurement": "Average SRB 24 h", "setting": "[1]; CALU-1 Run 2, 0.1 μg/ml CDDP", "result": 1.437}, {"measurement": "Average SRB 48 h", "setting": "[1]; CALU-1 Run 2, 0.1 μg/ml CDDP", "result": 1.79}, {"measurement": "Average SRB 72 h", "setting": "[1]; CALU-1 Run 2, 0.1 μg/ml CDDP", "result": 2.674}, {"measurement": "Average SRB 24 h", "setting": "[1]; CALU-1 Run 2, 1 μg/ml CDDP", "result": 1.725}, {"measurement": "Average SRB 48 h", "setting": "[1]; CALU-1 Run 2, 1 μg/ml CDDP", "result": 1.837}, {"measurement": "Average SRB 72 h", "setting": "[1]; CALU-1 Run 2, 1 μg/ml CDDP", "result": 2.563}, {"measurement": "Average SRB 24 h", "setting": "[1]; CALU-1 Run 2, 10 μg/ml CDDP", "result": 1.48}, {"measurement": "Average SRB 48 h", "setting": "[1]; CALU-1 Run 2, 10 μg/ml CDDP", "result": 1.702}, {"measurement": "Average SRB 72 h", "setting": "[1]; CALU-1 Run 2, 10 μg/ml CDDP", "result": 2.434}, {"measurement": "Average SRB 24 h", "setting": "[1]; CALU-1 Run 2, 100 μg/ml CDDP", "result": 1.318}, {"measurement": "Average SRB 48 h", "setting": "[1]; CALU-1 Run 2, 100 μg/ml CDDP", "result": 1.541}, {"measurement": "Average SRB 72 h", "setting": "[1]; CALU-1 Run 2, 100 μg/ml CDDP", "result": 1.575}, {"measurement": "Average SRB 24 h", "setting": "[1]; CALU-1 Run 3, 0.1 μg/ml CDDP, 24 h", "result": 1.492}, {"measurement": "Average SRB 48 h", "setting": "[1]; CALU-1 Run 3, 0.1 μg/ml CDDP, 48 h", "result": 1.491}, {"measurement": "Average SRB 72 h", "setting": "[1]; CALU-1 Run 3, 0.1 μg/ml CDDP, 72 h", "result": 1.835}, {"measurement": "Average SRB 24 h", "setting": "[1]; CALU-1 Run 3, 1 μg/ml CDDP, 24 h", "result": 1.295}, {"measurement": "Average SRB 48 h", "setting": "[1]; CALU-1 Run 3, 1 μg/ml CDDP, 48 h", "result": 1.463}, {"measurement": "Average SRB 72 h", "setting": "[1]; CALU-1 Run 3, 1 μg/ml CDDP, 72 h", "result": 1.452}, {"measurement": "Average SRB 24 h", "setting": "[1]; CALU-1 Run 3, 10 μg/ml CDDP, 24 h", "result": 1.139}, {"measurement": "Average SRB 48 h", "setting": "[1]; CALU-1 Run 3, 10 μg/ml CDDP, 48 h", "result": 1.152}, {"measurement": "Average SRB 72 h", "setting": "[1]; CALU-1 Run 3, 10 μg/ml CDDP, 72 h", "result": 1.193}, {"measurement": "Average SRB 24 h", "setting": "[1]; CALU-1 Run 3, 100 μg/ml CDDP, 24 h", "result": 0.98}, {"measurement": "Average SRB 48 h", "setting": "[1]; CALU-1 Run 3, 100 μg/ml CDDP, 48 h", "result": 1.449}, {"measurement": "Average SRB 72 h", "setting": "[1]; CALU-1 Run 3, 100 μg/ml CDDP, 72 h", "result": 1.264}, {"measurement": "CVE Average", "setting": "[2]; PC3 Run 1, 24 h, 0.1 μg/ml CDDP", "result": 0.73}, {"measurement": "CVE Average", "setting": "[2]; PC3 Run 1, 24 h, 1 μg/ml CDDP", "result": 0.368}, {"measurement": "CVE Average", "setting": "[2]; PC3 Run 1, 24 h, 10 μg/ml CDDP", "result": 0.548}, {"measurement": "CVE Average", "setting": "[2]; PC3 Run 1, 24 h, 100 μg/ml CDDP", "result": 0.337}, {"measurement": "CVE Average", "setting": "[2]; PC3 Run 1, 48 h, 0.1 μg/ml CDDP", "result": 0.938}, {"measurement": "CVE Average", "setting": "[2]; PC3 Run 1, 48 h, 1 μg/ml CDDP", "result": 0.483}, {"measurement": "CVE Average", "setting": "[2]; PC3 Run 1, 48 h, 10 μg/ml CDDP", "result": 0.706}, {"measurement": "CVE Average", "setting": "[2]; PC3 Run 1, 48 h, 100 μg/ml CDDP", "result": 0.619}, {"measurement": "CVE Average", "setting": "[2]; PC3 Run 1, 72 h, 0.1 μg/ml CDDP", "result": 1.091}, {"measurement": "CVE Average", "setting": "[2]; PC3 Run 1, 72 h, 1 μg/ml CDDP", "result": 0.415}, {"measurement": "CVE Average", "setting": "[2]; PC3 Run 1, 72 h, 10 μg/ml CDDP", "result": 0.64}, {"measurement": "CVE Average", "setting": "[2]; PC3 Run 1, 72 h, 100 μg/ml CDDP", "result": 0.421}, {"measurement": "CVE Average", "setting": "[2]; PC3 Run 2, 24 h, 0.1 μg/ml CDDP", "result": 0.489}, {"measurement": "CVE Average", "setting": "[2]; PC3 Run 2, 24 h, 1 μg/ml CDDP", "result": 0.238}, {"measurement": "CVE Average", "setting": "[2]; PC3 Run 2, 24 h, 10 μg/ml CDDP", "result": 0.498}, {"measurement": "CVE Average", "setting": "[2]; PC3 Run 2, 24 h, 100 μg/ml CDDP", "result": 0.309}, {"measurement": "CVE Average", "setting": "[2]; PC3 Run 2, 48 h, 0.1 μg/ml CDDP", "result": 0.714}, {"measurement": "CVE Average", "setting": "[2]; PC3 Run 2, 48 h, 1 μg/ml CDDP", "result": 0.393}, {"measurement": "CVE Average", "setting": "[2]; PC3 Run 2, 48 h, 10 μg/ml CDDP", "result": 0.694}]}
